Reference: patent US8278268B2, “Combination therapy comprising glucose reabsorption inhibitors and PPAR modulators” (Ortho-McNeil Pharmaceutical, Inc., priority 2001, dated 2012)

Tests used:
[1] = tested on: db/db mice; test: Example 4: plasma glucose AUC following an oral glucose challenge; type: in vivo
Method: (§1) To examine the effect of T-1095 in combination with a PPARγ agonist, male db/db mice (6 weeks of age/Jackson Labs, […]), a PPARγ agonist such as MCC-555 (3 mg/kg-30 mg/kg), T-1095 (3-100 mg/kg), or MCC-555 plus T-1095. Mice (n=8 animals/group) received the test compounds or vehicle by oral gavage in a volume of 10 ml/kg of body weight. Body weight was recorded on day 1, prior to dosing, and twice a week for the duration of the study. One hour after the final dose, mice were weighed and anesthetized with CO2/O2 (70:30). Mice were then bled by retro-orbital sinus puncture into 2 mL heparinized polypropylene tubes on ice. Mice were then fasted overnight and bled by tail-clip prior to receiving a glucose challenge (2 g/kg p.o). Blood was collected at 30, 60.120, and 180 minutes after the challenge. Animals were then sacrificed and epididymal fat pads, livers, and hearts were excised, weighed and frozen for histological examination. Plasma samples were then assayed for glucose, HbA1c, insulin, and triglycerides.

[2] = tested on: db/db mice; test: Example 4: 32 day oral dosing of T-1095 +/− MCC-555 in db/db mice; type: in vivo; settings: for % HbA1C +/− SEM / Body Weight Change (g) ± SEM / Glucose / Insulin / Liver Weight (g) ± SEM / TG / Heart Weight (g) ± SEM: 32 day oral dosing
Method: as §1
Livers and hearts were excised, weighed and frozen.

[3] = tested on: female db/db mice; test: Example 1: 11 day oral dosing of rosiglitazone +/− T-1095 in db/db mice; type: in vivo
Method: (§2) Mice (n=8 animals/group) received the test compounds or vehicle by oral gavage in a volume of 10 ml/kg of body weight. Body weight was recorded on day 1, prior to dosing, and days 4, 8 and 11. Eighteen hours after the final dose, mice were weighed and anesthetized with CO2/O2 (70:30). Mice were then bled by retro-orbital sinus puncture into 2 mL heparinized polypropylene tubes on ice.
Plasma samples were then assayed for glucose, insulin, and triglycerides using Trinder reagent (Sigma Diagnostics), Elisa (Alpco) and GPO-Trinder (Sigma Diagnostics), respectively.
(§3) Livers were excised, weighed and frozen. […] Heart weight can be measured in an analogous manner.

[4] = tested on: female db/db mice; test: Example 2: 11 day oral dosing of T-1095 +/− rosiglitazone in db/db mice; type: in vivo
Method: as §2, with “ice. Plasma samples were then assayed for glucose, insulin, and triglycerides using Trinder reagent (Sigma Diagnostics), Elisa (Alpco) and GPO-Trinder (Sigma Diagnostics), respectively. Livers and hearts were excised, weighed and frozen.” for “ice.”
as §3

[5] = tested on: SGLT in the kidney; settings: cited from earlier work
[6] = target: T1, SGLT-2 in the kidney (Homo sapiens, UniProt P31639); settings: compared with T-1095; cited from earlier work
T1 sequence (P31639 1-672): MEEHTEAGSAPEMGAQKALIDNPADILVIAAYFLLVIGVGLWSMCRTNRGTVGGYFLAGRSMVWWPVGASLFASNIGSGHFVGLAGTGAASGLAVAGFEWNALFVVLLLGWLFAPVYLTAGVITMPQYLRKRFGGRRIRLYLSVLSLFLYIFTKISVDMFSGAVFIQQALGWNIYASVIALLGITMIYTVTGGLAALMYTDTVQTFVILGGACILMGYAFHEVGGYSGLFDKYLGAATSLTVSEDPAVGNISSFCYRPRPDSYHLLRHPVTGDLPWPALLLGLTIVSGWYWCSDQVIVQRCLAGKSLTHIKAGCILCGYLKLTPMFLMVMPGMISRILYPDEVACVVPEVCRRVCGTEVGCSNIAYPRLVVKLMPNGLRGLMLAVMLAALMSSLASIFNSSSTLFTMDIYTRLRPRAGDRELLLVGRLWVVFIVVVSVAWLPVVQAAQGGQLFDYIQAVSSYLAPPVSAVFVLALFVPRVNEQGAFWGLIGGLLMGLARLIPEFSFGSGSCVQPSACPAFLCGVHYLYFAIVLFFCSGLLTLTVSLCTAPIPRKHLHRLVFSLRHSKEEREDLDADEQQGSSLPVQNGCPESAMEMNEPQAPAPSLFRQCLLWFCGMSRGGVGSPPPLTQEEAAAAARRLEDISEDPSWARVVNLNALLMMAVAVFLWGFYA

[7] = tested on: diabetic rodent models (STZ-induced diabetic rat, yellow KK mice, db/db mice, Zucker Diabetic Fatty rats and GK rats); settings: cited from earlier work
[8] = tested on: Na^+-glucose co-transporters located in chorionic membrane of the intestine and the kidney; settings: cited from earlier work
[9] = subcutaneous daily administration; cited from earlier work

## O=C1NC(=O)C(Cc2ccc3cc(OCc4ccccc4F)ccc3c2)S1 (stereo not drawn) [MCC-555, 5-((6-((2-fluorophenyl)methoxy)-2-naphthalenyl)methyl)-2,4-thiazolidinedione, reference compound]
[1]; 3 mpk MCC-555, 32 day oral dosing
  AUC glucose % of Vehicle ± SEM: 74.11 ± 7.38 % of Vehicle
[1]; 10 mpk MCC-555, 32 day oral dosing
  AUC glucose % of Vehicle ± SEM: 71.05 ± 8.37 % of Vehicle
[1]; 30 mpk MCC-555, 32 day oral dosing
  AUC glucose % of Vehicle ± SEM: 48.03 ± 4.37 % of Vehicle
[2]; 3 mpk MCC-555
  % HbA1C +/− SEM: 4.50 ± 0.17 %
  Body Weight Change (g) ± SEM: 9.14 ± 1.5 g
  Glucose: 201.3 ± 24 mg/dL
  Insulin: 31.7 ± 4.7 ng/dL
  Liver Weight (g) ± SEM: 2.36 ± 0.22 g
  TG: 90.20 ± 4.5 mg/dL
[2]; 10 mpk MCC-555
  % HbA1C +/− SEM: 4.10 ± 0.15 %
  Body Weight Change (g) ± SEM: 9.53 ± 0.9 g
  Glucose: 155.1 ± 22 mg/dL
  Heart Weight (g) ± SEM: 0.13 ± 0.01 g
  Insulin: 11.9 ± 1.4 ng/dL
  Liver Weight (g) ± SEM: 1.91 ± 0.17 g
  TG: 73.90 ± 5.4 mg/dL
[2]; 30 mpk MCC-555
  % HbA1C +/− SEM: 4.11 ± 0.14 %
  Body Weight Change (g) ± SEM: 8.0 ± 0.7 g
  Glucose: 111.5 ± 8.0 mg/dL
  Heart Weight (g) ± SEM: 0.12 ± 0.01 g
  Insulin: 5.40 ± 0.4 ng/dL
  Liver Weight (g) ± SEM: 1.68 ± 0.1 g
  TG: 55.30 ± 4.7 mg/dL
[2]; MCC-555 alone, in this study
  change in heart weight: did not produce a significant change in heart weight

## CN(CCOc1ccc(CC2SC(=O)NC2=O)cc1)c1ccccn1 (stereo not drawn) [Rosi, 5-((4-(2-(methyl-2-pyridinylamino)ethoxy)phenyl)methyl)-2,4-thiazolidinedione]
[3]; 0.1 mpk Rosi, mean
  Glucose: ***388.13 mg/dL
  Insulin: 65.75 ng/mL
  TG: ***188.38 mg/dL
[3]; 1 mpk Rosi, mean
  Glucose: ***246.71 mg/dL
  Insulin: ***25.43 ng/ml
  TG: ***199.43 mg/dL
[3]; 10 mpk Rosi, mean
  Glucose: ***321.63 mg/dL
  Insulin: ***31.63 ng/ml
  TG: ***136.25 mg/dL
[3]; Rosi 0.1 mpk, −T1095, mean
  Body Weight Change: 4.34 g
  Liver Weight: 2.31 g
[3]; Rosi 1 mpk, −T1095, mean
  Body Weight Change: 2.60 g
  Liver Weight: 2.32 g
[3]; Rosi 10 mpk, −T1095, mean
  Body Weight Change: 4.76 g
  Liver Weight: 2.36 g
[4]; Rosi 10 mpk, mean
  Body Weight Change: 3.9 g
  Glucose: **244 mg/dL
  Insulin: *7.4 ng/ml
  Liver Weight: 2.15 g
  TG: *192 mg/dL

## Cc1cc(O)c(C(=O)CCc2ccc3occc3c2)c(OC2OC(CO)C(O)C(O)C2O)c1 (stereo not drawn) [T-1095A]
[5]
  inhibition of SGLT in the kidney: selective and potent inhibitor of SGLT in the kidney
[6]
  inhibition of SGLT-2 in the kidney: also a better substrate for the inhibition of SGLT-2 in the kidney

## COC(=O)OCC1OC(Oc2cc(C)cc(O)c2C(=O)CCc2ccc3occc3c2)C(O)C(O)C1O (stereo not drawn) [T-1095]
[1]; 3 mpk T-1095, 32 day oral dosing
  AUC glucose % of Vehicle ± SEM: 95.75 ± 8.45 % of Vehicle
[1]; 10 mpk T-1095, 32 day oral dosing
  AUC glucose % of Vehicle ± SEM: 76.6 ± 6.85 % of Vehicle
[1]; 30 mpk T-1095, 32 day oral dosing
  AUC glucose % of Vehicle ± SEM: 73.69 ± 5.7 % of Vehicle
[1]; 100 mpk T-1095, 32 day oral dosing
  AUC glucose % of Vehicle ± SEM: 49.1 ± 3.21 % of Vehicle
[3]; T1095 100 mpk, mean
  Body Weight Change: 3.96 g
  Liver Weight: 1.88 g
[3]; T-1095 100 mpk, mean
  Glucose: ***405.13 mg/dL
  Insulin: 93.88 ng/mL
  TG: 248.88 mg/dL
[2]; 3 mpk T-1095
  % HbA1C +/− SEM: 6.10 ± 0.16%
  Body Weight Change (g) ± SEM: -6.09 ± 1.9 g
  Glucose: 490.3 ± 36 mg/dL
  Heart Weight (g) ± SEM: 0.16 ± 0.02 g
  Insulin: 10.7 ± 2.2 ng/dL
  Liver Weight (g) ± SEM: 1.51 ± 0.1 g
  TG: 210.90 ± 24 mg/dL
[2]; 10 mpk T-1095
  % HbA1C +/− SEM: 6.00 ± 0.29%
  Body Weight Change (g) ± SEM: -0.99 ± 1.9 g
  Glucose: 413.1 ± 50 mg/dL
  Heart Weight (g) ± SEM: 0.13 ± 0.01 g
  Insulin: 11.4 ± 3.8 ng/dL
  Liver Weight (g) ± SEM: 1.58 ± 0.08 g
  TG: 178.10 ± 21 mg/dL
[2]; 30 mpk T-1095
  % HbA1C +/− SEM: 5.38 ± 0.23%
  Body Weight Change (g) ± SEM: -2.44 ± 4.3 g
  Glucose: 380.6 ± 40 mg/dL
  Heart Weight (g) ± SEM: 0.14 ± 0.01 g
  Insulin: 17.7 ± 5.1 ng/dL
  Liver Weight (g) ± SEM: 1.57 ± 0.09 g
  TG: 197.20 ± 26 mg/dL
[2]; 100 mpk T-1095
  % HbA1C +/− SEM: 4.96 ± 0.24 %
  Body Weight Change (g) ± SEM: -4.83 ± 2.9 g
  Glucose: 367.2 ± 42 mg/dL
  Heart Weight (g) ± SEM: 0.14 ± 0.01 g
  Insulin: 25.5 ± 6.2 ng/dL
  Liver Weight (g) ± SEM: 1.64 ± 0.11 g
  TG: 151.20 ± 17 mg/dL
[4]; 3 mpk T-1095, mean
  Glucose: 286 mg/dL
  Insulin: **22.5 ng/ml
  TG: 263 mg/dL
[4]; 10 mpk T-1095, mean
  Glucose: **263 mg/dL
  Insulin: 30.1 ng/mL
  TG: 256 mg/dL
[4]; 30 mpk T-1095, mean
  Glucose: 370 mg/dL
  Insulin: 23.9 ng/mL
  TG: 315 mg/dL
[4]; 100 mpk T-1095, mean
  Glucose: **242 mg/dL
  Insulin: 49.1 ng/mL
  TG: **243 mg/dL
[4]; T-1095 3 mpk, −Rosi, mean
  Body Weight Change: 3.0 g
  Liver Weight: 1.63 g
[4]; T-1095 10 mpk, −Rosi, mean
  Body Weight Change: 4.3 g
  Liver Weight: 1.87 g
[4]; T-1095 30 mpk, −Rosi, mean
  Body Weight Change: 2.4 g
  Liver Weight: 1.75 g
[4]; T-1095 100 mpk, −Rosi, mean
  Body Weight Change: 2.3 g
  Liver Weight: 1.73 g
[7]; in vivo, liver
  pro-drug conversion: converted to its active form T-1095A in the liver
[7]; in vivo, po
  oral glucose tolerance test and hyperinsulinemic euglycemic clamp: improvement of glucose tolerance and the reduction of insulin resistance
[7]; in vivo
  adverse signs during treatment: no observed sign of adding weight, infection in the urinary tracts, electrolyte imbalance in plasma, changes in food intake, acute hypoglycemic shock nor pathological changes in the kidney
[7]; oral administration, rodent models of IDDM and NIDDM
  elevated blood glucose levels: suppress elevated blood glucose levels
[7]; treatment for 3 weeks to 6 months, diabetic rodent models
  fed and fasting blood glucose levels and HbA1c: reduced both fed and fasting blood glucose levels and HbA1c
[7]; yellow KK mice and other diabetic mice models
  hyperinsulinemia, hypertriglyceridemia, microalbuminuria: decrease in the hyperinsulinemia, hypertriglyceridemia, and the development of microalbuminuria

## O=C(CCc1ccc(O)cc1)c1c(O)cc(O)cc1O[C@@H]1O[C@H](CO)[C@@H](O)[C@H](O)[C@H]1O [phlorizin]
[8]
  inhibition of Na+-glucose co-transporters: inhibits Na^+-glucose co-transporters
[9]
  plasma glucose level: the glucose level in a plasma is controlled at a normal level for a long time
